Assay results: the METLIN SMRT retention time set (Domingo-Almenara et al. 2019)

assay: gradient 5% acetonitrile 3 min, to 50% in 2 min, to 85% in 15 min, held 3 min, 100 µL/min; settings: column: Zorbax Extend-C18 2.1 x 50 mm; eluents: water / acetonitrile, 0.1% formic acid
Procedure, shortened: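 Using water and acetonitrile that each contained 0.1% formic acid, mixtures of ~100 pure standards were separated at 100 μL/min on a Zorbax Extend-C18 column (2.1 × 50 mm, 1.8 μm). The HPLC fed a quadrupole time-of-flight mass spectrometer working in positive and negative ionization mode, with dead and dwell volumes of 40 μL and 900 μL. Data were acquired over 3 months. Retention time was read from computationally picked adduct peaks after manual inspection of each.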

Compound	RP-LC retention time [s]
CCCNC(=O)C1CCN(c2ccc(SCC(=O)Nc3ccccc3C)nn2)CC1	636
O=C(CN1CCN(c2nccn2-c2ccccc2F)CC1)Nc1ccc(F)cc1F	562
CN1CCN(CCNC(=O)CCc2cn(-c3ccccc3)nc2-c2ccc3c(c2)OCO3)CC1	639
CNC(=O)C1=CCN(C(=O)c2ccc(F)cc2F)CC1	644
COc1ccc(CCNC(=O)C2CCCN(S(=O)(=O)c3ccc4c(ccn4C)c3)C2)cc1OC (centres undefined)	828
Fc1cccc(-c2noc(-c3ccc(N4CCN(CCOc5ccc(Cl)cc5)CC4)nc3)n2)c1	920
CCn1c(CN(C)C(=O)Nc2ccc3c(c2)OCO3)nc2cc(C(=O)N(C)C)ccc21	607
N#Cc1cccc(-c2cn3c(n2)N(C(=O)Cc2ccsc2)CCC3)c1	822
CCc1ccc(CNC(=O)Cn2ccc3ccc(N4CCOCC4)nc32)cc1	969
O=C(Cn1cccc1-c1nc(-c2ccccc2)cs1)N1CCOCC1	934
Cc1cc(C)c(NC(=O)CN2C(=O)NC3(CCC(C)CC3)C2=O)c(C)c1 (centres undefined)	570
Cc1ccc(-c2nnc(-c3cccc(S(=O)(=O)N4CCN(C)CC4)c3)o2)cc1	679
CC1CCN(C(=O)C2CCN(S(=O)(=O)c3ccc4c(c3)sc(=O)n4C(C)C)CC2)CC1	969
CCCN1CCN(c2ncnc3sc(C(=O)NCCCN4CCCC4)c(C)c23)CC1	583
CCCn1cc(CCNC(=O)Nc2ccccc2Cl)c2cccnc21	812
COc1ccc(Cc2nnc3sc(-c4ccc(OC)cc4OC)nn23)cc1	1030
CCOC(=O)c1c(C)[nH]c(CCC(=O)Nc2ccc(C(C)=O)cc2)c1C	800
O=C(NCc1ccc2c(c1)OCO2)C1CCN(c2cnc(N3CCSCC3)nc2)CC1	763
Cc1ccc(NC(=O)NCC2CCOCC2)cc1F	710
CCCOc1nc2ccccc2nc1N1CCCC(C(=O)NC2CC2)C1 (centres undefined)	1010
CCc1noc(-c2ccnc(-n3cnc(C(=O)NC4CCCCCC4)c3)c2)n1	640
COc1ccc(S(=O)(=O)NC2CCN(C(=O)C3CCC3)CC2)cc1	750

Compound	RP-LC retention time [s]
CCc1ccc(S(=O)(=O)NCCc2csc(-c3cccnc3)n2)s1	734
CS(=O)(=O)c1ccc2nc(NC(=O)c3csc(-n4cccc4)n3)sc2c1	849
O=C(Nc1ccc(F)cc1F)N1CCN(Cc2nc3cc(Cl)ccc3o2)CC1	763
CCCCN1C(=O)C(NC(=O)c2cccc(OC)c2)(C(F)(F)F)C(C(C)=O)=C1C (centres undefined)	916
Brc1cccc(-c2nnc3sc(-c4ccncc4)nn23)c1	838
COC(=O)c1ccc2c(=O)n(-c3cccc(Cl)c3)c(N3CCCC3)nc2c1	1040
CCOC(=O)c1c(C)oc2ncnc(NCC3CCN(Cc4ccc(F)cc4)CC3)c12	698
CC1(C(=O)NCc2cccc(F)c2)CCCN(S(=O)(=O)c2ccccc2)C1 (centres undefined)	902
COC(=O)c1ccc2c(=O)n(-c3cccc(Cl)c3)c(N3CCSC3)nc2c1	1110
Cc1ccccc1NC(=O)N1CCC(CCN)CC1	580
Cc1ccccc1CNC(=O)C1(C)CCCN(C(=O)Nc2ccc(F)cc2)C1 (centres undefined)	899
CC(C)CN1CCCCc2cc(C(=O)NC3CCS(=O)(=O)C3)sc21 (centres undefined)	941
Cn1nc(N2CCCC(NS(=O)(=O)Cc3ccccc3)C2)ccc1=O (centres undefined)	702
CCC(=O)N1CCc2cc(N3CC(C(=O)NCc4cccnc4)CC3=O)ccc21 (centres undefined)	579
Cc1cc2c(N3CCCC(C(=O)N4CCN(c5ccc(F)cc5)CC4)C3)nccc2s1 (centres undefined)	726
Cc1csc(-c2cc(S(=O)(=O)NCc3ccc4c(c3)OCO4)cn2CC(=O)N2CCCC2)n1	835
COC(=O)c1c(NCCc2c[nH]c3ccccc23)c2cc(F)ccc2[nH]c1=O	770
COc1ccc(NC(=O)c2cccn2Cc2noc(C)n2)cc1Cl	859
Cc1nc(-c2csc(S(=O)(=O)N3CCC(C(=O)N4CCC5(CC4)OCCO5)CC3)c2)no1	765
CCCOc1nccnc1NC1CCN(C(=O)c2ccn(CC)n2)CC1	722
Cc1nc(N2CCOCC2)c2c(C(=O)Nc3cccc(C(F)(F)F)c3)c(C)oc2n1	955
CC(C)Cn1cnc2c(-c3ccc(F)cc3)csc2c1=O	1030
